Experimental data published in patent US20120190620A1, “METHODS TO IDENTIFY TARGETS AND MOLECULES REGULATING PURINOSOMES AND THEIR USES” (priority 2010, published 2012).

How the values were obtained:
Format in all cases: cell-based, human
[1] = tested on: HeLa cells; assay: Purinosome dynamics DMR screen, sequential order molecule, DMAT, TBB; settings: for modulation of the DMAT signal / modulation of the TBB signal: adrenergic receptor ligand library, order ligand, TBB, FIG. 5, DMAT
Text: A library of agonists for various different GPCRs were used to individually pretreat a confluent layer of Hela cells for about one hour, before sequential stimulation with DMAT and TBB, respectively. The responses were monitored using Epic® system.
A library of molecules targeting endogenous alpha2A and beta2 adrenergic receptors were used to individually pretreat a confluent layer of Hela cells for about one hour, before sequential stimulation with DMAT and TBB, respectively. The responses were monitored using Epic® system.
(§1) Epic® wavelength interrogation system (Corning Inc., Corning, N.Y.) was used for whole cell sensing. This system consists of a temperature-control unit, an optical detection unit, and an on-board liquid handling unit with robotics. The detection unit is centered on integrated fiber optics, and enables kinetic measures of cellular responses with a time interval of ˜15 sec. The compound solutions were introduced by using the on-board liquid handling unit (i.e., pippetting).
(§2) For biosensor cellular assays, compound solutions were made by diluting the stored concentrated solutions with the HBSS (1× Hanks balanced salt solution, plus 20 mM Hepes, pH 7.1), and transferred into a 384 well polypropylene compound storage plate to prepare a compound source plate. Two compound source plates were made separately when a two-step assay was performed. In parallel, the cells were washed twice with the HBSS and maintained in 30 μl of the HBSS to prepare a cell assay plate. Both the cell assay plate and the compound source plate(s) were then incubated in the hotel of the reader system. After incubation the baseline wavelengths of all biosensors in the cell assay microplate were recorded and normalized to zero. Afterwards, a 2 to 10 min continuous recording was carried out to establish a baseline, and to ensure that the cells reached a steady state. Cellular responses were then triggered by transferring 10 μl of the compound solutions into the cell assay plate using the on-board liquid handler.
(§3) All studies were carried out at a controlled temperature (28° C.). At least two independent sets of experiments, each with at least three replicates, were performed.
(§4) The upstream signaling pathways linking to the purinosome is unknown at the present time. To identify cellular targets and pathways that are involved in regulating purinosome dynamics, a library of agonists for a great number of G protein-coupled receptors and membrane bound receptor tyrosine kinases was made in house, and each agonist was used to stimulate a confluent layer of Hela cells, cultured using high initial seeding number (25k per well for 384 well Epic® cell culture compatible biosensor microplates) in purine rich medium (i.e., regular 10% FCS or FBS). The concentrations for all small organic molecules were 10 micromolar, whereas 1 micromolar for all small peptides, and 100 nanomolar for all protein factors (molecular weight >15k Da). The cellular responses to each agonist were recorded for about 1 hour, and used to determine the functional expression of their corresponding cognate receptor(s).
To examine the receptor whose signaling is involved in regulating the purinosome dynamics, Hela cells were pretreated individually with each agonist for about one hour, followed by sequential stimulation with DMAT (20 micromolar) and TBB (25 micromolar), each step about 1 hour.

[2] = tested on: HeLa cells; assay: Purinosome dynamics DMR screen, sequential order molecule, TBB, DMAT; settings: agonist library; order agonist, TBB, DMAT; FIG. 4
Text: A library of agonists for various different GPCRs were used to individually pretreat a confluent layer of Hela cells for about one hour, before sequential stimulation with TBB and DMAT, respectively. The responses were monitored using Epic® system.
(A) The dose-dependent DMR signals of Hela cells induced by alpha2A agonist clonidine. (B) The TBB DMR signal of Hela cells after pretreated with clonidine at different doses. (C) The dose-dependent DMR signals of pertussis toxin (PTX)-pretreated Hela cells induced by alpha2A agonist clonidine. (D) The TBB DMR signal of the PTX-pretreated Hela cells after stimulated with clonidine at different doses. The TBB concentration was 20 μM in both (C) and (D). The clonidine pretreatment occurred about one-hour before the TBB stimulation.
as §1, §2, §3, §4

[3] = tested on: HeLa cells; assay: Epic label-free biosensor DMR assay of compound-induced signals in HeLa cells; settings: for effect of pretreatment on the sequential DMAT response / effect of pretreatment on the sequential TBB response: HeLa cells pretreated with the compound about 1 hr; for effect of pretreatment on the sequential DMAT response: then DMAT; for effect of pretreatment on the sequential TBB response: then TBB; for DMR signal induced by CK2 inhibitor: HeLa cells, regular serum medium, high initial seeding number
Text: HeLa cells were obtained from American Type Cell Culture (Manassas, Va.). This cervical cancer cell line was maintained in regular serum medium (i.e., minimum essential medium (MEM) (Invitrogen) supplemented with 10% fetal bovine serum (FBS) and 1% Penicillin/streptomycin). To investigate the effects of purine depletion on the purinosome formation and dissociation, HeLa cells were maintained for at least two passages in “purine-depleted medium” prior cell assays. The purine depleted medium is a medium consisting of Roswell Park Memorial Institute 1640 (RPMI 1640) supplemented with dialyzed 5% FBS […]. FBS was dialyzed against 0.9% NaCl at 4° C. for ˜2 days using a 25 kDa MWCO dialysis membrane to remove purines. This process completely removes the purines normally present in FBS.
Cells were typically grown using ˜1 to 2×10^4 cells per well at passage 3 to 15 suspended in 50 μl of the corresponding culture medium in the biosensor microplate, and were cultured at 37° C. under air/5% CO2 for ˜1 day. The confluency for all cells at the time of assays was ˜100%.
as §1
The RWG biosensor is capable of detecting minute changes in local index of refraction near the sensor surface. Since the local index of refraction within a cell is a function of density and its distribution of biomass (e.g., proteins, molecular complexes), the biosensor exploits its evanescent wave to non-invasively detect ligand-induced dynamic mass redistribution in native cells. The evanescent wave extends into the cells and exponentially decays over distance, leading to a characteristic sensing volume of ˜150 nm, implying that any optical response mediated through the receptor activation only represents an average over the portion of the cell that the evanescent wave is sampling. The aggregation of many cellular events downstream the receptor activation determines the kinetics and amplitudes of a ligand-induced DMR.
as §2, §3

[4] = GPCR/RTK agonist library, pretreated about one hour, order agonist, DMAT (20 micromolar), TBB (25 micromolar), FIG. 3

Row | Molecule | modulation of the DMAT signal [1] | modulation of the TBB signal [1] | also measured
1 | CS(=O)(=O)Nc1c(O)ccc2c1CCCC2C1=NCCN1 (stereo not drawn) [A61603] | suppress | potentiate | modulation of the DMAT DMR signal [1, 4]: suppress; modulation of the TBB DMR signal [1, 4]: potentiate; modulation of the TBB DMR signal [2]: selectively potentiate
2 | N=C(CC(O)COc1ccccc1-c1ccccc1)N1CCCCC1 (stereo not drawn) [AH11110A] | potentiate | suppress | 
3 | Nc1ncnc2c1ncn2[C@@H]1O[C@H](COP(=O)(O)OP(=O)(O)OP(=O)(O)O)[C@@H](O)[C@H]1O [ATP] |  |  | modulation of the DMAT DMR signal [1, 4]: selectively suppress; modulation of the TBB DMR signal [2]: selectively potentiate
4 | OC[C@H]1O[C@@H](n2cnc3cc(Cl)c(Cl)cc32)[C@H](O)[C@@H]1O [DRB, 5,6-Dichlorobenzimidazole 1-β-D-ribofuranoside] |  |  | effect of pretreatment on the sequential DMAT response [3]: desensitized; effect of pretreatment on the sequential TBB response [3]: slightly potentiated; DMR signal induced by CK2 inhibitor [3]: DMR signals similar to the DMAT response
5 | O=C(O)c1cc([N+](=O)[O-])ccc1NCCCc1ccccc1 [NPPB] |  |  | modulation of the DMAT DMR signal [1, 4]: potentiate; modulation of the TBB DMR signal [1, 4]: no or little impact
6 | CCCCC[C@H](O)/C=C/[C@H]1C(=O)C[C@H](O)[C@@H]1C/C=C\CCCC(=O)O [PGD2, prostaglandin D2] |  |  | modulation of the DMAT DMR signal [1, 4]: potentiate; modulation of the TBB DMR signal [1, 4]: no or little impact; modulation of the TBB DMR signal [2]: selectively suppress
7 | CCCCC[C@H](O)/C=C/[C@H]1[C@H](O)CC(=O)[C@@H]1C/C=C\CCCC(=O)O [PGE2, peostaglandin E2] |  |  | modulation of the DMAT DMR signal [1, 4]: potentiate; modulation of the TBB DMR signal [1, 4]: no or little impact; modulation of the TBB DMR signal [2]: selectively suppress
8 | CC(C)(Cc1c[nH]c2ccc(Cl)cc12)NCCOc1ccccc1OCC1CC1 [RS17053] | potentiate | suppress | 
9 | C[C@H](N)Cn1ccc2cc(F)c(Cl)cc21 [Ro600175] |  |  | modulation of the DMAT DMR signal [1]: potentiate; modulation of the TBB DMR signal [1]: no or little impact; modulation of the DMAT DMR signal [2]: selectively potentiate
10 | CCCCCCCCCCCCC/C=C/[C@@H](O)[C@@H](N)COP(=O)(O)O [S1P, Sphingosine-1-phosphate] |  |  | modulation of the DMAT DMR signal [1, 4]: selectively suppress; modulation of the TBB DMR signal [2]: selectively potentiate
11 | Brc1c(Br)c(Br)c2[nH]cnc2c1Br [TBBz, 4,5,6,7-tetrabromobenzimidazole] |  |  | type of CK2 inhibitor by label-free biosensor cellular assay [3]: purinosome disruption agent
12 | O=C(O)/C=C/c1cc(Br)c(Br)c(Br)c1Br [TBCA, Tetrabromocinnamic Acid] |  |  | type of CK2 inhibitor by label-free biosensor cellular assay [3]: purinosome promoting agent; effect of pretreatment on the sequential DMAT response [3]: desensitized; effect of pretreatment on the sequential TBB response [3]: slightly potentiated; DMR signal induced by CK2 inhibitor [3]: DMR signals similar to the DMAT response
13 | O=c1ccn([C@@H]2O[C@H](COP(=O)(O)OP(=O)(O)O)[C@@H](O)[C@H]2O)c(=O)[nH]1 [UDP] |  |  | modulation of the DMAT DMR signal [1, 4]: selectively suppress; modulation of the TBB DMR signal [2]: selectively potentiate
14 | Brc1c(NC2=NCCN2)ccc2nccnc12 [UK14304] | suppress | potentiate | 
15 | Clc1ccc2c(c1)C(N1CCNCC1)=Nc1ccccc1O2 [amoxapine] | potentiate | suppress | 
16 | O=c1cc(-c2ccc(O)cc2)oc2cc(O)cc(O)c12 [apigenin] |  |  | DMR signal induced by CK2 inhibitor [3]: DMR signals similar to the DMAT response
17 | c1ccc2c(c1)[I+]c1ccccc1-2 [diphylpheneiodonium] | potentiate | suppress | 

Row | Molecule | modulation of the DMAT signal [1] | modulation of the TBB signal [1] | also measured
18 | CC(CCc1ccc(O)cc1)NCCc1ccc(O)c(O)c1 (stereo not drawn) [dobutamine] | specifically suppress |  | 
19 | NCCc1ccc(O)c(O)c1 [dopamine] | suppress | potentiate | modulation of the DMAT DMR signal [1, 4]: suppress; modulation of the TBB DMR signal [1, 4]: potentiate; modulation of the TBB DMR signal [2]: selectively potentiate
20 | N=C(N)N/N=C/c1c(Cl)cccc1Cl [guanabenz] | suppress | potentiate | 
21 | N=C(N)NC(=O)Cc1c(Cl)cccc1Cl [gufacine] | suppress | potentiate | 
22 | CC(C(O)c1ccc(O)cc1)N1CCC(Cc2ccccc2)CC1 (stereo not drawn) [ifenprodil] | potentiate | suppress | 
23 | CCC(NC(C)C)C(O)c1ccc(O)c(O)c1 (stereo not drawn) [isoetharine] | specifically suppress |  | 
24 | CC(C)NCC(O)c1ccc(O)c(O)c1 (stereo not drawn) [isoproterenol] | specifically suppress |  | 
25 | CNCCCC12CCC(c3ccccc31)c1ccccc12 [maprotiline] | potentiate | suppress | 
26 | CC(N)C(O)c1ccc(O)c(O)c1 (stereo not drawn) [methylnorephrine] | suppress | potentiate | 
27 | c1ccc2c(CC3=NCCN3)cccc2c1 [naphazoline] | suppress | potentiate | 
28 | NC[C@H](O)c1ccc(O)c(O)c1 [norepinephrine] | suppress | potentiate | 
29 | C1COC(NC(C2CC2)C2CC2)=N1 [rilmenidine] | suppress | potentiate | 
30 | Clc1ccc2nsnc2c1NC1=NCCN1 [tizanidine] | suppress | potentiate | 
31 | Cc1cccc(C)c1N=C1NCCCS1 [xylazine] | suppress | potentiate | 
32 | EGF: epidermal growth factor, the EGFR agonist (NSDSECPLSHDGYCLHDGVCMYIEALDKYACNCVVGYIGERCQYRDLKWWELR; not fully specified; Epidermal growth factor; UniProt P01133 971-1023, looked up) |  |  | modulation of the DMAT DMR signal [2]: selectively suppress
33 | HGF: hepatocyte growth factor, the HGFR agonist |  |  | modulation of the TBB DMR signal [2]: selectively potentiate
34 | IGF1: insulin-like growth factor 1, the IGF1R agonist |  |  | modulation of the TBB DMR signal [2]: selectively potentiate
